Measured values: ChEMBL document CHEMBL3507680, “University of Dundee, Gates Library screen for HepG2 cell viability”

Test: Human HepG2 cell viability assay in 384 well format
Assay type: toxicity, cell-based
Parameters: dose 125 nL, time 70.5 hour; cytotoxicity at 70.5 h: concentration not given beside the values
Conditions: HepG2 cells, read-out: Inhibition

Row | Compound | cytotoxicity at 70.5 h
1 | COc1ccc(CN2Cc3cnn(C)c3C(COCC3CC3)C2)cc1 (centres undefined) | -1.5%
2 | CNC(=O)CCCNCc1c(C)nn(C)c1N(C)C | -1.74%
3 | CC(C)OCCN(C)CC(c1cccs1)N1CCOCC1 (centres undefined) | 29.2%
4 | Cc1ccc(CN2CCOCS2(=O)=O)cc1F | -9.79%
5 | Cc1cc(CS(=O)(=O)c2ccccc2)no1 | -5.49%
6 | CCN1CC2(CCCCN2C(=O)c2ccsc2)CC1=O (centres undefined) | 2.62%
7 | COc1ccc(CCC(=O)N2CCN(c3nc(C)ns3)CC2)cc1 | -0.82%
8 | Cc1ccc(NC(=O)c2nc3c(s2)CCCN3C(=O)C2CC2)cn1 | 3.07%
9 | C/C=C(/C)C(=O)NS(=O)(=O)c1ccc(Cl)cn1 | -0.512%
10 | N#Cc1cccc(CN2CC[C@@H]3[C@@H]2CC(=O)N3Cc2cccnc2)c1 | -18.9%
11 | CN(C)C(=O)C1CCCN1C(=O)c1ccc(Cn2ccnc2)o1 (centres undefined) | 10.3%
12 | COc1ccc(CN2CCC3(CC2)CC(c2cccnc2)CO3)cc1 (centres undefined) | -6.67%
13 | Cc1nnc2n1CCN(c1nc3ccccc3o1)C2 | 1.55%
14 | CCNC(=O)CC1CC2(CCN(C(C)=O)CC2)c2cc(F)ccc21 (centres undefined) | -5.07%
15 | CNC(=O)c1c(C)cccc1NCC(=O)Nc1cc(C)nn1C | 8.71%
16 | Cc1nccn1C1CCCN(C(=O)C2=NN(C)C(=O)CC2)C1 (centres undefined) | 9.33%
17 | O=c1n(CCNCc2ccc(-c3ccccc3)cc2)nc2ccccn12 | -8.68%
18 | CC(C)c1cc2c(O)nc(CSCC(=O)NCc3ccccn3)nc2s1 | -5.56%
19 | Cc1cnc(N2CC[C@H]3[C@@H]2CCC(=O)N3c2ccccc2)nc1 | 5.23%
20 | CN(CCO)Cc1nnc(C2CCN(C(=O)c3cc[nH]c3)CC2)n1C | -1.84%
21 | O=C(Nc1cn[nH]c1)c1ccc(O)nc1 | 1.6%
22 | CN(Cc1cccnc1)Cc1cn2c(n1)CN(C1CCOCC1)CC2 | -4.27%
23 | CCOC(=O)c1sc(NC(=O)C(C)(C)C)c(C#N)c1C | 41.6%

Row | Compound | cytotoxicity at 70.5 h
24 | CC(C)[C@H]1COC(=O)N1CC(=O)N(C)CCCn1cccn1 | -4.67%
25 | CN(CCc1ccc(F)cc1)Cc1nc2c(cnn2C)c(=O)[nH]1 | 11.7%
26 | O=C(CN1CCCC1Cn1cccn1)NCCC1=CCCCC1 (centres undefined) | -9.89%
27 | Cn1ccnc1C(=O)N1CCOC(Cc2ccc(Cl)cc2)C1 (centres undefined) | -8.65%
28 | CCc1nnnn1Cc1csc(N(C)C(C)=O)n1 | 11.5%
29 | Cc1cnc2n1CCN(C)C21CCN(C(=O)CC(C)C)CC1 | 3.32%
30 | COc1ccc2c(c1)NC(=O)C2OC(=O)Cc1ccccc1C (centres undefined) | 31.3%
31 | CCN1C[C@H]2C3(CCN(C(=O)NC(C)C)CC3)CC[C@@]2(C(=O)N(C)C)C1 | -8.21%
32 | CCOCC(=O)NC1(c2nc(C)cs2)CCCC1 | -2.89%
33 | COCCN(C)C(=O)c1nc2c(s1)CCCN2c1ccc(C)nn1 | -1.66%
34 | CCCS(=O)(=O)N1C[C@H](N(C)Cc2ccco2)[C@@H]2OCCC[C@@H]21 | -6.06%
35 | O=C(CCSc1ccccc1)NCCn1nc2ccccn2c1=O | -8.89%
36 | OC(CN(Cc1ccccc1)Cc1cscn1)c1ccco1 (centres undefined) | -9.5%
37 | CCn1ncc2c1C(COC)CN(Cc1cnn(C)c1)C2 (centres undefined) | 8.92%
38 | O=C(CC1CCCC1)NCCS(=O)(=O)N1CCN(c2ncccn2)CC1 | -11%
39 | CN(Cc1ccccc1NCc1ncc[nH]1)C(=O)c1cccs1 | 14%
40 | COCCN1CCC(c2ncc(C(=O)N3CCOCC3)c(C)n2)CC1 | -1.72%
41 | CNc1cncc(C2CCCN2C(=O)CCn2ccnc2)n1 (centres undefined) | -6.98%
42 | COCCC(=O)N1CC2(CCN(Cc3ccncc3)CC2)C1 | -1.69%
43 | Cn1ccc(CN2CCCC(CNS(C)(=O)=O)C2)cc1=O (centres undefined) | -10.1%
44 | Cc1nc(C)c(C)c(NCc2cnn3cccnc23)n1 | 3.17%
45 | O=C(NC[C@H]1OC[C@@H](NCc2ccc(F)cc2)[C@@H]1O)c1ccncc1 | 0.548%
46 | Cc1nc(C)n(CC2CCCN2CC(=O)NCCC2=CCCCC2)n1 (centres undefined) | -9.96%

Row | Compound | cytotoxicity at 70.5 h
47 | Cc1ccc2c(c1)CN(C(=O)c1cccnc1)C(CN(C)C)CO2 (centres undefined) | 3.4%
48 | CN(CC(=O)N1CC(C)(C)[C@@](C)(O)C1)Cc1ccncc1 | -6.29%
49 | O=C1CC(C(=O)Nc2nnc(-c3ccoc3)[nH]2)c2ccccc2N1 (centres undefined) | 0.202%
50 | CCc1cnc2c(c1Nc1ccccc1OC)c(=O)n(C)c(=O)n2C | 5.02%
51 | CN(CCO)Cc1nnc(C2CCN(C(=O)c3ccccc3)CC2)n1C | 0.129%
52 | C[C@]12CCCCN(C(=O)c3ccccn3)[C@H]1CCCC(=O)N2 | 5.15%
53 | COc1cccc(OCCCc2cncc(C(N)=O)c2)c1 | -13.7%
54 | COc1ccccc1C(=O)N1CCN(C(=O)Cc2ccccn2)CC1 | -6.85%
55 | COc1ccc(CCN(C)CCS(=O)(=O)c2ccc(Cl)cc2)cc1OC | -13.8%
56 | CNS(=O)(=O)c1cccc(CNc2cc(C(F)(F)F)ccn2)c1 | -0.978%
57 | Cc1cnc(N2CC[C@@H]3O[C@@H](COCc4ccccn4)CC[C@@H]32)nc1 | -8.03%
58 | Fc1ccccc1CN1CCCN(c2ncnc3[nH]ccc23)CC1 | -24%
59 | Cc1cccc2nc(C(=O)N3CCC4(CCC(=O)N(C)C4)CC3)c(F)n12 | -11.3%
60 | Oc1cccc(CNC2CCN(CCc3ccncc3)CC2)c1 | -1.4%
61 | CCS(=O)(=O)NC[C@]12COC[C@H]1CN(Cc1cc(C)on1)C2 | -6.04%
62 | COc1ccc(CC2(CO)CCN(c3cc(C#N)ccn3)CC2)cc1 | -3.42%
63 | Cc1noc(CNC(=O)NCCOc2ccc(Cl)cc2)n1 | -3.2%
64 | c1csc(-c2noc(CN3CCc4cncnc4C3)n2)c1 | -8.24%
65 | CC(C)Oc1ncccc1CNC(=O)C1CCCN(C(=O)C2CC2)C1 (centres undefined) | 6.38%
66 | Cc1ccc(S(=O)(=O)NC(=O)c2cccc(OCC(N)=O)c2)s1 | -3.78%
67 | O=C(Cc1ccccc1)N1CCn2cc(Cn3cncn3)nc2C1 | 9.06%
68 | COCCN(CC(F)F)c1cc(COC)nc2ncnn12 | -9.69%
69 | O=C(CCCOc1cccc(F)c1)N1CCCC(n2cccn2)C1 (centres undefined) | -5.07%

Row | Compound | cytotoxicity at 70.5 h
70 | c1ccc(O[C@H]2C[C@@H]3CN(Cc4cnccn4)C[C@@H]3C2)cc1 | -0.72%
71 | Cc1cc(-c2ccccc2)nc(C2CCCN2S(C)(=O)=O)n1 (centres undefined) | -5.33%
72 | COc1ccc(CN2CCN(CCn3ccnc3)CC2)cc1F | -13.3%
73 | O=C(NC1CC1)c1nc2c(o1)CN(c1ncccn1)C2 | 1.1%
74 | Cc1cc(C(=O)N2CCn3c(COCC4CCCC4)cnc3C2C)on1 (centres undefined) | -15.4%
75 | C1CCC(NCC2(N3CCOCC3)CCSC2)C1 (centres undefined) | 14.2%
76 | COCCN(CCOC)c1ncccc1Cl | -6.57%
77 | O=C(CC1OCCc2ccccc21)NCCn1cccc1 (centres undefined) | -4.75%
78 | Cc1ccc(NC(=O)N(C)C)c(C(=O)OCC(=O)NC2CCCC2)c1 | -0.892%
79 | Fc1ccc(-c2nc(CNC3CCc4ncnn4C3)cs2)cc1 (centres undefined) | 0.825%
80 | O=C(Nc1cccnc1N1CCSCC1)c1cc2c(s1)CCCCC2 | -6.67%
81 | CC(C(=O)Nc1ncccn1)N1CCc2[nH]nc(C(F)(F)F)c2C1 (centres undefined) | -6.74%
82 | O=c1[nH]c(NC2CCCC2)nc2nccc(-c3ccco3)c12 | -8.71%
83 | Cc1cc(C)n(CC2CCCN2C(=O)c2ccc3ccccc3n2)n1 (centres undefined) | -10.7%
84 | CN(CCCNC(=O)Nc1ccc(C#N)cc1)CC(F)(F)F | 40.9%
85 | COCCN1CCC1c1cc(NC2CCCC2)nc(C)n1 (centres undefined) | -5.31%
86 | Cc1ccc(O)c(C(=O)NCCS(=O)(=O)Cc2ccccc2)c1 | -5.32%
87 | COc1ccccc1-n1nc(CC(C)C)nc1CSc1nnc(N)s1 | -15.9%
88 | Cc1nc(-c2ccsc2)ccc1C(=O)NCCCN1CCOCC1 | -5.66%
89 | Cc1cc(C(=O)Nc2ccc(OCCN3CCN(C)CC3)cc2)[nH]n1 | 0.21%
90 | COc1nc2c(cc1C(=O)N1CCCC1c1ccccn1)CCC2 (centres undefined) | 1.54%
91 | Cc1ncnc2c1CCN(C(=O)Cc1ccccn1)CC2 | -12.9%
92 | CC(CCc1ccccc1F)C(=O)NS(=O)(=O)CC1CC1 (centres undefined) | -0.115%

Row | Compound | cytotoxicity at 70.5 h
93 | CCN(CC)C(=O)c1c(Cl)cnn1CC | -0.536%
94 | CCn1nc(C)c(CN2CCC(c3ccn[nH]3)C2)c1C (centres undefined) | 4.91%
95 | Cc1ccc(C(=O)NC2CCN(C)CC2)cc1N(C)S(C)(=O)=O | -6.98%
96 | COc1cccc2c1OCC(C(=O)N1CCC(NS(C)(=O)=O)CC1)C2 (centres undefined) | -7.91%
97 | CN(C(=O)CC1=CCCCC1)C1CCCN(CCc2ccccc2)C1 (centres undefined) | -5.66%
98 | COc1ccc(CN(C)CC(=O)Nc2ccc3[nH]c(=O)[nH]c3c2)cc1F | -8.14%
99 | CC(C)(C)C(N)c1nc(-c2nnc[nH]2)no1 (centres undefined) | -2.07%
100 | CCN(C(=O)c1ccccc1I)C1CC(=O)NC1=O (centres undefined) | 4.4%
101 | CCCC(NC(=O)c1ccc(C)cc1C)c1nnn[nH]1 (centres undefined) | 0.32%
102 | CN(C)C(=O)c1cc2c(nc1NCC1CC1)CCNCC2 | 29.7%
103 | CS(=O)(=O)c1ccc(NC(=O)NC2(c3cccc(F)c3)CC2)cc1 | -7.54%
104 | CCc1cnc(N)nc1NCCCn1cc(Cl)cn1 | -5.81%
105 | O=C(c1c[nH]c(=O)[nH]1)N1CCc2ccccc21 | -4.03%
106 | CCn1ncnc1C1CC(=O)NCc2nc(N3CCOCC3)sc21 (centres undefined) | -20.5%
107 | O=C(Cc1ccccc1)N1CC[C@@H]2CNS(=O)(=O)[C@@H]2CC1 | 2.48%
108 | CN(C)C(=O)N1Cc2ccccc2C2(CCN(C3CCOCC3)CC2)C1 | -10.7%
109 | COC(=O)c1cccc(C(=O)N2CCN(c3ccc(OC)cc3)CC2)n1 | -7.54%
110 | CN1CCN(S(=O)(=O)c2ccc(Cl)c(Cl)c2)c2cnccc21 | -0.75%
111 | COCC(NC(=O)c1ccc[nH]1)c1cccc(C(F)(F)F)c1 (centres undefined) | 17.9%
112 | Cn1ccnc1CN1CCC2(CC1)CCN(c1cncnc1)C2=O | -3.96%
113 | CCc1nc(C2CCCN(C(=O)c3c[nH]c(C(C)C)n3)C2)no1 (centres undefined) | -10.9%
114 | CS(=O)(=O)N1CCO[C@@H]2CN(C(=O)COC3CCCC3)C[C@@H]2C1 | 7.96%
